Reference: patent US20240408169A1 (priority 2023, published 2024)
Like-named read-outs stand apart in the source and are kept apart here. *1 amine or outer side, *2 acyl side, *3 side chain or, on linkers, in order; H or OH if unused. Where a SMILES comes first, the peptide text is derived from it. Bridges are numbered along the chain shown (N, C = ends). [ ]: non-standard residue; d: D form. The star is where a group is joined. X138 = CN([C@@H](Cc1cc(Cl)ccc1-c1ccc(S(=O)(=O)N2CCCC2)cc1)C(=O)[*:2])[*:1]; X181 = CN([C@@H](Cc1cc(Cl)ccc1C1=CCN(C(=O)C2CC2)CC1)C(=O)[*:2])[*:1]; X137 = CN([C@@H](Cc1cc(F)ccc1-c1cnn(S(C)(=O)=O)c1)C(=O)[*:2])[*:1]; NMePhe(5-Cl,2-O(2-Pym)) = CN[C@@H](Cc1cc(Cl)ccc1Oc1ncccn1)C(=O)O; X196 = CN([C@@H](Cc1cc(F)ccc1-c1cnn2ccncc12)C(=O)[*:2])[*:1]; NMe3Pal(2-OiBu,5-Cl) = CN[C@@H](Cc1cc(Cl)cnc1OCC(C)C)C(=O)O; NMehhhLys(Me) = CN([C@@H](CCCCCCCN(C)[*:3])C(=O)[*:2])[*:1]; X159 = CN([C@@H](Cc1cc(Cl)cnc1Oc1cnn(C)c1)C(=O)[*:2])[*:1]; X174 = CN([C@@H](Cc1cc(Cl)cnc1-c1cnn(C)c1)C(=O)[*:2])[*:1]; NMe(hhhLys) = CN([C@@H](CCCCCCCN[*:3])C(=O)[*:2])[*:1]; X210 = CC(C)=Cc1ccc(Cl)cc1C[C@@H](C(=O)[*:2])N(C)[*:1]; Oxane2carbonyl(2R-CF3) = O=C([C@@]1(C(F)(F)F)CCCCO1)*; X156 = CN([C@@H](Cc1cc(Cl)cc2ccccc12)C(=O)[*:2])[*:1]; cBuCO(3,3-F2-1-CF3) = O=C(C1(C(F)(F)F)CC(F)(F)C1)*; X133 = Cc1ncc(Cl)cc1C[C@@H](C(=O)[*:2])N(C)[*:1]; X161 = Cc1ccc(F)cc1C[C@@H](C(=O)[*:2])N(C)[*:1]; Pro(trans-4-F) = O=C(O)[C@@H]1C[C@@H](F)CN1; Gly(cPr) = N[C@H](C(=O)O)C1CC1

What was measured:
CyclinB1/CDK1 = target: T1, CyclinB1/CDK1 (Homo sapiens, UniProt P14635); experiment: Fluorescence Polarization (FP) competitive binding assay, Cyclin B1/Cdk1;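 note: fluorescence polarization read after equilibration at room temperature, with IC50 taken from serially diluted dose-response curves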
T1 construct: purchased Eurofins, discovery 14-450

CyclinE1/CDK2 = target: T2, CyclinE1/CDK2 (Homo sapiens, UniProt P24864); experiment: Fluorescence Polarization (FP) competitive binding assay, Cyclin E1/Cdk2;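 note: readings taken after two-hour equilibration at room temperature in HEPES buffer with NaCl, DTT, NP-40 and BSA, IC50 fitted from eight-concentration serial dilution series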
T2 construct: purchased Eurofins, discovery 14-475

OVCAR3 cells = experiment: MTT proliferation assay, OVCAR3; type: cell-based; details: 5 days compound exposure, 1:3 serial dilution starting at 10 μM;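 note: compound given as an 8- or 10-point series, one day after plating, with exposure covering roughly 3-4 cell doublings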
NCI-H1048 cells = experiment: MTT proliferation assay, NCI-H1048; type: cell-based; details: 5 days compound exposure, 1:3 serial dilution starting at 10 μM;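 note: Dose-response in 96-well plates over 8 or 10 concentration points, with exposure spanning 3-4 cell doublings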
CyclinA2/CDK2 = target: T3, CyclinA2/CDK2 (Homo sapiens, UniProt P20248); experiment: Fluorescence Polarization (FP) competitive binding assay, Cyclin A2/Cdk2;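 note: plates equilibrated two hours at room temperature before polarization reading, IC50 fitted from eight-concentration compound titration curves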
T3 construct: purchased CRELUX Protein Services

[1] = read-out: Cyclin B FP IC50; 10 nM Cyclin B1/Cdk1, 2 nM FAM probe; average of 2-3 independent experiments
[2] = read-out: Cyclin A FP IC50; 8 nM Cyclin A2/Cdk2, 2 nM FAM probe; average of 2-3 independent experiments
[3] = 10 nM Cyclin B1/Cdk1, 2 nM FAM probe; average of 2-3 independent experiments; read-out: Cyclin B FP IC50
[4] = 10 nM Cyclin E1/Cdk2, 2 nM FAM probe, average of 2-3 independent experiments, read-out: Cyclin E FP IC50
[5] = 8 nM Cyclin A2/Cdk2, 2 nM FAM probe; average of 2-3 independent experiments; read-out: Cyclin A FP IC50

Row | Structure (SMILES) | IC50 (CyclinB1/CDK1; [1]) [nM] | IC50 (CyclinE1/CDK2) [nM] | GI50 (OVCAR3 cells) [nM] | GI50 (NCI-H1048 cells) [nM] | IC50 (CyclinA2/CDK2; [2]) [nM] | IC50 (CyclinB1/CDK1; [3]) [nM] | IC50 (CyclinE1/CDK2; [4]) [nM] | IC50 (CyclinA2/CDK2; [5]) [nM]
1 | CC(C)COc1ncc(Cl)cc1C[C@H]1C(=O)N(C)CCCCCCC[C@H](N(C)C(=O)[C@@H](NC(=O)[C@@H]2C[C@@H](F)CN2C(=O)[C@@]2(C(F)(F)F)CCCCO2)C2CC2)C(=O)N[C@@H](CC(C)C)C(=O)N1C [Example 229] ({Oxane2carbonyl(2R-CF3)}-[Pro(trans-4-F)][Gly(cPr)][NMehhhLys(Me)]L[NMe3Pal(2-OiBu,5-Cl)]; lactam 3-C) | 20 | 100 | 20 | 10 | 20 | – | – | –
2 | CC(C)C[C@@H]1NC(=O)[C@@H](N(C)C(=O)[C@@H](NC(=O)[C@@H]2C[C@@H](F)CN2C(=O)C2(C(F)(F)F)CC(F)(F)C2)C2CC2)CCCCCCCNC(=O)[C@H](Cc2cc(Cl)ccc2C2=CCN(C(=O)C3CC3)CC2)N(C)C1=O [Example 97] ({cBuCO(3,3-F2-1-CF3)}-[Pro(trans-4-F)][Gly(cPr)][NMe(hhhLys)]L[X181]; lactam 3-C) | – | – | 30 | 20 | – | 20 | 1450 | 20
3 | CC(C)C[C@@H]1NC(=O)[C@@H](N(C)C(=O)[C@@H](NC(=O)[C@@H]2C[C@@H](F)CN2C(=O)C2(C(F)(F)F)CC(F)(F)C2)C2CC2)CCCCCCCN(C)C(=O)[C@H](Cc2cc(Cl)cnc2-c2cnn(C)c2)N(C)C1=O [Example 246] ({cBuCO(3,3-F2-1-CF3)}-[Pro(trans-4-F)][Gly(cPr)][NMehhhLys(Me)]L[X174]; lactam 3-C) | 20 | 640 | 10 | 30 | 20 | – | – | –
4 | CC(C)C[C@@H]1NC(=O)[C@@H](N(C)C(=O)[C@@H](NC(=O)[C@@H]2C[C@@H](F)CN2C(=O)C2(C(F)(F)F)CC(F)(F)C2)C2CC2)CCCCCCCN(C)C(=O)[C@H](Cc2cc(Cl)ccc2-c2ccc(S(=O)(=O)N3CCCC3)cc2)N(C)C1=O [Example 266] ({cBuCO(3,3-F2-1-CF3)}-[Pro(trans-4-F)][Gly(cPr)][NMehhhLys(Me)]L[X138]; lactam 3-C) | – | – | 50 | 30 | – | 20 | 2220 | 20
5 | CC(C)C[C@@H]1NC(=O)[C@@H](N(C)C(=O)[C@@H](NC(=O)[C@@H]2C[C@@H](F)CN2C(=O)C2(C(F)(F)F)CC(F)(F)C2)C2CC2)CCCCCCCNC(=O)[C@H](Cc2cc(Cl)ccc2Oc2ncccn2)N(C)C1=O [Example 154] ({cBuCO(3,3-F2-1-CF3)}-[Pro(trans-4-F)][Gly(cPr)][NMe(hhhLys)]L[NMePhe(5-Cl,2-O(2-Pym))]; lactam 3-C) | – | – | 20 | 20 | – | 20 | 480 | 150
6 | Cc1ccc(F)cc1C[C@H]1C(=O)NCCCCCCC[C@H](N(C)C(=O)[C@@H](NC(=O)[C@@H]2C[C@@H](F)CN2C(=O)C2(C(F)(F)F)CC(F)(F)C2)C2CC2)C(=O)N[C@@H](CC(C)C)C(=O)N1C [Example 264] ({cBuCO(3,3-F2-1-CF3)}-[Pro(trans-4-F)][Gly(cPr)][NMe(hhhLys)]L[X161]; lactam 3-C) | – | – | 30 | 40 | – | 20 | 290 | 90
7 | CC(C)C[C@@H]1NC(=O)[C@@H](N(C)C(=O)[C@@H](NC(=O)[C@@H]2C[C@@H](F)CN2C(=O)C2(C(F)(F)F)CC(F)(F)C2)C2CC2)CCCCCCCN(C)C(=O)[C@H](Cc2cc(F)ccc2-c2cnn3ccncc23)N(C)C1=O [Example 310] ({cBuCO(3,3-F2-1-CF3)}-[Pro(trans-4-F)][Gly(cPr)][NMehhhLys(Me)]L[X196]; lactam 3-C) | – | – | 10 | 10 | – | 20 | 990 | 80
8 | CC(C)C[C@@H]1NC(=O)[C@@H](N(C)C(=O)[C@@H](NC(=O)[C@@H]2C[C@@H](F)CN2C(=O)C2(C(F)(F)F)CC(F)(F)C2)C2CC2)CCCCCCCN(C)C(=O)[C@H](Cc2cc(Cl)cnc2Oc2cnn(C)c2)N(C)C1=O [Example 323] ({cBuCO(3,3-F2-1-CF3)}-[Pro(trans-4-F)][Gly(cPr)][NMehhhLys(Me)]L[X159]; lactam 3-C) | – | – | 10 | 10 | – | 20 | 240 | 30
9 | CC(=O)N1CC=C(c2ccc(F)cc2C[C@H]2C(=O)N(C)CCCCC=CC[C@H](N(C)C(=O)[C@@H](NC(=O)[C@@H]3C[C@@H](F)CN3C(=O)C3(C(F)(F)F)CC(F)(F)C3)C3CC3)C(=O)N[C@@H](CC(C)C)C(=O)N2C)CC1 [Example 39] | – | – | 210 | 90 | – | 20 | 940 | 60
10 | CC(C)=Cc1ccc(Cl)cc1C[C@H]1C(=O)NCCCCCCC[C@H](N(C)C(=O)[C@@H](NC(=O)[C@@H]2C[C@@H](F)CN2C(=O)C2(C(F)(F)F)CC(F)(F)C2)C2CC2)C(=O)N[C@@H](CC(C)C)C(=O)N1C [Example 62] ({cBuCO(3,3-F2-1-CF3)}-[Pro(trans-4-F)][Gly(cPr)][NMe(hhhLys)]L[X210]; lactam 3-C) | – | – | 70 | 60 | – | 20 | 390 | 30
11 | CC(C)C[C@@H]1NC(=O)[C@@H](N(C)C(=O)[C@@H](NC(=O)[C@@H]2C[C@@H](F)CN2C(=O)C2(C(F)(F)F)CC(F)(F)C2)C2CC2)CCCCCCCN(C)C(=O)[C@H](Cc2cc(Cl)cc3ccccc23)N(C)C1=O [Example 425] ({cBuCO(3,3-F2-1-CF3)}-[Pro(trans-4-F)][Gly(cPr)][NMehhhLys(Me)]L[X156]; lactam 3-C) | – | – | 240 | 160 | – | 20 | 210 | 150
12 | Cc1ncc(Cl)cc1C[C@H]1C(=O)NCCCCCCC[C@H](N(C)C(=O)[C@@H](NC(=O)[C@@H]2C[C@@H](F)CN2C(=O)C2(C(F)(F)F)CC(F)(F)C2)C2CC2)C(=O)N[C@@H](CC(C)C)C(=O)N1C [Example 331, (2S,4R)—N—((S)-2-(((3S,6S,9S)-3-((5-chloro-2-methylpyridin-3-yl)methyl)-6-isobutyl-4-methyl-2,5,8-trioxo-1,4,7-triazacyclohexadecan-9-yl)(methyl)amino)-1-cyclopropyl-2-oxoethyl)-1-(3,3-difluoro-1-(trifluoromethyl)cyclobutane-1-carbonyl)-4-fluoropyrrolidine-2-carboxamide] ({cBuCO(3,3-F2-1-CF3)}-[Pro(trans-4-F)][Gly(cPr)][NMe(hhhLys)]L[X133]; lactam 3-C) | – | – | 50 | 60 | – | 20 | 1140 | 170
13 | CC(C)C[C@@H]1NC(=O)[C@@H](N(C)C(=O)[C@@H](NC(=O)[C@@H]2C[C@@H](F)CN2C(=O)C2(C(F)(F)F)CC(F)(F)C2)C2CC2)CCCCCCCN(C)C(=O)[C@H](Cc2cc(F)ccc2-c2cnn(S(C)(=O)=O)c2)N(C)C1=O [Example 95] ({cBuCO(3,3-F2-1-CF3)}-[Pro(trans-4-F)][Gly(cPr)][NMehhhLys(Me)]L[X137]; lactam 3-C) | – | – | 20 | 10 | – | 20 | 530 | 50
14 | CC(C)C[C@@H]1NC(=O)[C@@H](N(C)C(=O)[C@@H](NC(=O)[C@@H]2C[C@@H](F)CN2C(=O)C2(C(F)(F)F)CC(F)(F)C2)C2CC2)CC=CCCCCN(C)C(=O)[C@H](Cc2cc(F)ccc2-c2cnn(C3CC3)c2)N(C)C1=O [Example 86] | – | – | 20 | 20 | – | 20 | 250 | 60
